Tests used:
[1] = molecular target: T1, Tissue alpha-L-fucosidase (Bos taurus) (UniProt Q2KIM0); assay: Inhibition of bovine kidney alpha-L-fucosidase using p-nitrophenyl glycoside as substrate assessed as release of p-nitrophenol at 1000 uM measured by spectrometric assay relative to control; format: tissue-based
T1 sequence (whole entry): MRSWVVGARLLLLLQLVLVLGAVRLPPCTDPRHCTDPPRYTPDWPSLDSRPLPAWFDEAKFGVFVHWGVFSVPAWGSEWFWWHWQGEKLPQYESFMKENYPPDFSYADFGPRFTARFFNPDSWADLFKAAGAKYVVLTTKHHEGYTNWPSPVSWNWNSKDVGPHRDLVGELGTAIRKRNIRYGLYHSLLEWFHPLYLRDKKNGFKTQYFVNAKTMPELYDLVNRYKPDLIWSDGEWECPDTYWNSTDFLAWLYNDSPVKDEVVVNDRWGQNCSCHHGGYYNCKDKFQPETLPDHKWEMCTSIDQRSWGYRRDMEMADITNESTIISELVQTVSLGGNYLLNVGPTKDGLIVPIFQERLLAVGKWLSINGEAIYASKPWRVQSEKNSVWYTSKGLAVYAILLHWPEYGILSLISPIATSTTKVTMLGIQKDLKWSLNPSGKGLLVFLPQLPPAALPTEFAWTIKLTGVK

[2] = Inhibition of jack bean alpha-mannosidase using p-nitrophenyl glycoside as substrate assessed as release of p-nitrophenol measured by spectrometric assay; design: species or system Canavalia ensiformis
[3] = Inhibition of rat intestinal maltase using maltose as substrate assessed as release of D-glucose measured by spectrometric assay
[4] = molecular target: T2, Sucrase-isomaltase, intestinal (Rattus norvegicus, UniProt P23739); assay: Inhibition of rat intestinal sucrase using p-nitrophenyl glycoside as substrate assessed as release of p-nitrophenol measured by spectrometric assay; details: read-out: IC50
Sus scrofa = species on record: Sus scrofa; assay: Inhibition of porcine kidney alpha-trehalase using p-nitrophenyl glycoside as substrate assessed as release of p-nitrophenol at 1000 uM measured by spectrometric assay relative to control
[5] = Inhibition of Penicillium decumbens alpha-L-rhamnosidase using p-nitrophenyl glycoside as substrate assessed as release of p-nitrophenol measured by spectrometric assay
[6] = molecular target: T3, Tissue alpha-L-fucosidase (Bos taurus, UniProt Q2KIM0); assay: Inhibition of bovine kidney alpha-L-fucosidase using p-nitrophenyl glycoside as substrate assessed as release of p-nitrophenol measured by spectrometric assay
T3 sequence (Q2KIM0 whole entry): T1 sequence (whole entry)

Helix pomatia = assay: Inhibition of snail beta-mannosidase using p-nitrophenyl glycoside as substrate assessed as release of p-nitrophenol at 1000 uM measured by spectrometric assay relative to control
[7] = molecular target: T2, Sucrase-isomaltase, intestinal; assay: Inhibition of rat intestinal isomaltase using p-nitrophenyl glycoside as substrate assessed as release of p-nitrophenol measured by spectrometric assay
Alpha-galactosidase = Alpha-galactosidase (Coffea arabica, UniProt Q42656); assay: Inhibition of coffee beans alpha-galactosidase using p-nitrophenyl glycoside as substrate assessed as release of p-nitrophenol measured by spectrometric assay
[8] = Inhibition of porcine kidney alpha-trehalase using p-nitrophenyl glycoside as substrate assessed as release of p-nitrophenol measured by spectrometric assay; design: species or system Sus scrofa
Bos taurus [9] = species on record: Bos taurus; assay: Inhibition of bovine liver beta-glucosidase using p-nitrophenyl glycoside as substrate assessed as release of p-nitrophenol at 1000 uM measured by spectrometric assay relative to control; format: tissue-based
[10] = molecular target: T4, Alpha-mannosidase (Canavalia ensiformis) (UniProt C0HJB3); assay: Inhibition of jack bean alpha-mannosidase using p-nitrophenyl glycoside as substrate assessed as release of p-nitrophenol at 1000 uM measured by spectrometric assay relative to control
T4 sequence (whole entry): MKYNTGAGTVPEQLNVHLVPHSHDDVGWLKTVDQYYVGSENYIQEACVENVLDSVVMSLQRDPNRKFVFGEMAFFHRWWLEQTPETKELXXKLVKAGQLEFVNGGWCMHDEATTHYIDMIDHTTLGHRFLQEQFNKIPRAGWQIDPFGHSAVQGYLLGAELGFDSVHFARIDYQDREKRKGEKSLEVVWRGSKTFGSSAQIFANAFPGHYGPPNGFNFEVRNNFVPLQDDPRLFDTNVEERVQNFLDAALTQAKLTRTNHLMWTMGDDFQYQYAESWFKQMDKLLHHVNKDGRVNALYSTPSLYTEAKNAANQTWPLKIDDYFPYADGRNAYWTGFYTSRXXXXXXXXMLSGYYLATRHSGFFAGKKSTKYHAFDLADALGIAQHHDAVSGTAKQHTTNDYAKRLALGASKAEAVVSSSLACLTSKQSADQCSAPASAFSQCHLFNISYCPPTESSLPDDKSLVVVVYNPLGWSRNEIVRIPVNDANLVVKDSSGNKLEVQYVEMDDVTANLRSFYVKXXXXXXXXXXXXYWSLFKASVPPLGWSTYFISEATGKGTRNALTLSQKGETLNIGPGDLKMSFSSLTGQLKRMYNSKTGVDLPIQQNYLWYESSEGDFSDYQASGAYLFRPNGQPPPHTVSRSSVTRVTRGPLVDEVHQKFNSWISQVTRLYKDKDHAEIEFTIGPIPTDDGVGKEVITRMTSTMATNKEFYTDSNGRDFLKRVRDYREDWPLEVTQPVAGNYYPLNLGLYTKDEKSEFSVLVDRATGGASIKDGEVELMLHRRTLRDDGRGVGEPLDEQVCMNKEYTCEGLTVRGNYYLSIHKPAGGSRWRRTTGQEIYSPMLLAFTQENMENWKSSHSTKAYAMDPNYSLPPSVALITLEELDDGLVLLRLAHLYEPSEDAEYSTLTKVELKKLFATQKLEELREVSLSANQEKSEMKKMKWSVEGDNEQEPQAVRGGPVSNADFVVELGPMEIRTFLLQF

[11] = Inhibition of almond beta-glucosidase using p-nitrophenyl glycoside as substrate assessed as release of p-nitrophenol measured by spectrometric assay; design: species or system Prunus dulcis
[12] = Inhibition of bovine liver beta-glucosidase using p-nitrophenyl glycoside as substrate assessed as release of p-nitrophenol measured by spectrometric assay; design: species or system Bos taurus
Aspergillus niger = assay: Inhibition of Aspergillus niger amyloglucosidase using p-nitrophenyl glycoside as substrate assessed as release of p-nitrophenol at 1000 uM measured by spectrometric assay relative to control
Beta-glucuronidase = Beta-glucuronidase (Escherichia coli (strain K12), UniProt P05804); assay: Inhibition of Escherichia coli beta-glucuronidase using p-nitrophenyl glycoside as substrate assessed as release of p-nitrophenol measured by spectrometric assay
Penicillium decumbens = assay: Inhibition of Penicillium decumbens alpha-L-rhamnosidase using p-nitrophenyl glycoside as substrate assessed as release of p-nitrophenol at 1000 uM measured by spectrometric assay relative to control
[13] = molecular target: Beta-glucuronidase (Escherichia coli (strain K12)) (UniProt P05804); assay: Inhibition of Escherichia coli beta-glucuronidase using p-nitrophenyl glycoside as substrate assessed as release of p-nitrophenol at 1000 uM measured by spectrometric assay relative to control
[14] = Inhibition of snail beta-mannosidase using p-nitrophenyl glycoside as substrate assessed as release of p-nitrophenol measured by spectrometric assay; design: species or system Helix pomatia
Bos taurus [15] = species on record: Bos taurus; assay: Inhibition of bovine liver beta-galactosidase using p-nitrophenyl glycoside as substrate assessed as release of p-nitrophenol at 1000 uM measured by spectrometric assay relative to control
[16] = Inhibition of rice alpha-glucosidase using p-nitrophenyl glycoside as substrate assessed as release of p-nitrophenol measured by spectrometric assay; design: species or system Oryza sativa; details: read-out: IC50
[17] = Inhibition of Aspergillus niger amyloglucosidase using p-nitrophenyl glycoside as substrate assessed as release of p-nitrophenol measured by spectrometric assay
Prunus dulcis = assay: Inhibition of almond beta-glucosidase using p-nitrophenyl glycoside as substrate assessed as release of p-nitrophenol at 1000 uM measured by spectrometric assay relative to control
[18] = Inhibition of bovine liver beta-galactosidase using p-nitrophenyl glycoside as substrate assessed as release of p-nitrophenol measured by spectrometric assay; format: tissue-based, Bos taurus
[19] = molecular target: Alpha-galactosidase (Coffea arabica) (UniProt Q42656); assay: Inhibition of coffee beans alpha-galactosidase using p-nitrophenyl glycoside as substrate assessed as release of p-nitrophenol at 1000 uM measured by spectrometric assay relative to control
Chain of Alpha-galactosidase (Coffea arabica) (Q42656 16-378 limits assumed): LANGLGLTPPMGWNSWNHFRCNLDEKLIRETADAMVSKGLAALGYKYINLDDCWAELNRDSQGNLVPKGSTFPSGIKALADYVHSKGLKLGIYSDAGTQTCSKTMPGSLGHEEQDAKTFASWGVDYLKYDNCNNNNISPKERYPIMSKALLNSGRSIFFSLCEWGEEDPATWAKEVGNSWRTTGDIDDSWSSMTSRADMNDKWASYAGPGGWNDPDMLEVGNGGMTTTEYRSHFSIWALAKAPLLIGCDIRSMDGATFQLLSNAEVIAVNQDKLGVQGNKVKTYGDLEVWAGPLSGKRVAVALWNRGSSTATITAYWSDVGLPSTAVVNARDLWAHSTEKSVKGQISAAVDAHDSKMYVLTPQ

Chain of Beta-glucuronidase (P05804 whole entry): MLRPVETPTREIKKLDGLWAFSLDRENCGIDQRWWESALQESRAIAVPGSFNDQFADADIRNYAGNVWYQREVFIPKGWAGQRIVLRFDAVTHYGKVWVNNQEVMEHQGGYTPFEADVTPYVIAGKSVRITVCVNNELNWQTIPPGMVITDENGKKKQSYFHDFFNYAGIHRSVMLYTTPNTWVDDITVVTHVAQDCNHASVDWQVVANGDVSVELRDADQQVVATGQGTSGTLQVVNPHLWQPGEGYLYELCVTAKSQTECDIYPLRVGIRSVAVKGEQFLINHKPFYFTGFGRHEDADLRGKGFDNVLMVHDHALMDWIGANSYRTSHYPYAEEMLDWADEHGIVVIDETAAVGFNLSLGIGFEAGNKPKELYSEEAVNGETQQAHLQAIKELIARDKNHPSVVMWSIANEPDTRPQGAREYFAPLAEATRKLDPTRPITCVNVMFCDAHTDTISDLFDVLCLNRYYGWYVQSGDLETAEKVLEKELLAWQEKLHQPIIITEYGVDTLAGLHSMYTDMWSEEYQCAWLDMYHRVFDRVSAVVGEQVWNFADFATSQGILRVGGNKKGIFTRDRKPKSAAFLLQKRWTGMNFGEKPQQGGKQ
Chain of Beta-glucuronidase (Escherichia coli (strain K12)) (P05804 whole entry, looked up): as the sequence (P05804 whole entry) above
Chain of Alpha-galactosidase (Q42656 whole entry): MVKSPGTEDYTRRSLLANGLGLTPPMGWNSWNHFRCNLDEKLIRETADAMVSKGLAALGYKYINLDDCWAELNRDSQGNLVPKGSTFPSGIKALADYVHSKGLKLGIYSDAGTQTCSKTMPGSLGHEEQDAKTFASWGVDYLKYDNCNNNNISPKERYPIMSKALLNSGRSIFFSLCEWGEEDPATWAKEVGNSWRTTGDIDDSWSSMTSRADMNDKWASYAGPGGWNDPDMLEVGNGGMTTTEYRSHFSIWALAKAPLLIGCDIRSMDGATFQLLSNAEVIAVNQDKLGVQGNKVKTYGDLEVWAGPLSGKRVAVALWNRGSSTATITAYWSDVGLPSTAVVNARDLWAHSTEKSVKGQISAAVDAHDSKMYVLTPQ
T2 sequence (P23739 1-1013 limits assumed): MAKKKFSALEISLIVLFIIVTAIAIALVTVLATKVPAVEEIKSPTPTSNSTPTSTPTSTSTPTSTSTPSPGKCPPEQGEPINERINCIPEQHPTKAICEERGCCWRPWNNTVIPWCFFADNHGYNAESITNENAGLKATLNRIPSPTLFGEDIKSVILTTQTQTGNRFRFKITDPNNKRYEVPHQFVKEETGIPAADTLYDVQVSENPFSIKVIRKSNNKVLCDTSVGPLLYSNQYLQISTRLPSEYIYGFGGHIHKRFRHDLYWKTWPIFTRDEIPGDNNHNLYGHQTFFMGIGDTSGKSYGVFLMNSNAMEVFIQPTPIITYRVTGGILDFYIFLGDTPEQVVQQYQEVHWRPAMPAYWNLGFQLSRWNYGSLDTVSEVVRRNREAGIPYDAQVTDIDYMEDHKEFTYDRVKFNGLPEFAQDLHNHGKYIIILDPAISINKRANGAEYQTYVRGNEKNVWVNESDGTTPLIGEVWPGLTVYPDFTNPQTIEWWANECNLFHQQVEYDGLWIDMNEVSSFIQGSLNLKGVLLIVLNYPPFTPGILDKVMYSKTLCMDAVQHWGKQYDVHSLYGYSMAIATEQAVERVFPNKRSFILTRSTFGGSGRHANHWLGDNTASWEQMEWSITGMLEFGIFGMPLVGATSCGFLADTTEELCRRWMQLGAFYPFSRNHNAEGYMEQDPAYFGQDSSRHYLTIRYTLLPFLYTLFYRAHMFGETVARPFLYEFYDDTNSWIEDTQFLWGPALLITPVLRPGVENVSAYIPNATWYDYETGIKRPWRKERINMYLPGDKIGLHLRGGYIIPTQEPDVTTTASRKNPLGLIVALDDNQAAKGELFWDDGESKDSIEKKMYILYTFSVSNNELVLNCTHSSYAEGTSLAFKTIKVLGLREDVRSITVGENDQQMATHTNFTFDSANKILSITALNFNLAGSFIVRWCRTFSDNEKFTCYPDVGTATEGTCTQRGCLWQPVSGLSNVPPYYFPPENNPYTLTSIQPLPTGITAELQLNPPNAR
T2 sequence (P23739 1014-1841 limits assumed): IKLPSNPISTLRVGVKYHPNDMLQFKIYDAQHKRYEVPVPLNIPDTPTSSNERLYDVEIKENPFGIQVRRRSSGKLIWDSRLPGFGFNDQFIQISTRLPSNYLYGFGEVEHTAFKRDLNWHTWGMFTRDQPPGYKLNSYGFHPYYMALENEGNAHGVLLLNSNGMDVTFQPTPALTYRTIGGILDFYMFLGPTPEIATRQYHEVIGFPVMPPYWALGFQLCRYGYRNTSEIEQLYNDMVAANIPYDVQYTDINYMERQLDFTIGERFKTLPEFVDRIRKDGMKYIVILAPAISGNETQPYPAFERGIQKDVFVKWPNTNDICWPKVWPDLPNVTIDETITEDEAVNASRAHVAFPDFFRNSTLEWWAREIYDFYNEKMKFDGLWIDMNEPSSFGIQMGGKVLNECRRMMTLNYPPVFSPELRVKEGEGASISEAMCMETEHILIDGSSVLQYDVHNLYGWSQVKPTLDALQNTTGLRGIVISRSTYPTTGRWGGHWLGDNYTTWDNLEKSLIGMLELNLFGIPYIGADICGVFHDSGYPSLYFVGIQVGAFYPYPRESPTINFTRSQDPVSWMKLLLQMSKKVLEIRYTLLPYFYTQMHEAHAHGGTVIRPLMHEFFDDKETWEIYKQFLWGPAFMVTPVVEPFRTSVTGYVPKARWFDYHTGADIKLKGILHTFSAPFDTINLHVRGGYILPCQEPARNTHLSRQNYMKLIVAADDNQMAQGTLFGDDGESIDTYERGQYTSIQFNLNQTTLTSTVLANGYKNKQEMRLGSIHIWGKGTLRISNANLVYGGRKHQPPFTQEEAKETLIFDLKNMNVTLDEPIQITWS

SMILES | inhibition [1] [%] | IC50 [2] | IC50 [3] [nM] | IC50 [4] [nM] | inhibition (Sus scrofa) [%] | IC50 [5] | IC50 [6] | inhibition (Helix pomatia) [%] | IC50 ([7]; read-out: IC50) [nM] | IC50 [8] | inhibition [10] [%] | IC50 [11] | inhibition (Aspergillus niger) [%] | IC50 (Beta-glucuronidase) | inhibition (Penicillium decumbens) [%] | inhibition [13] [%] | IC50 [14] | IC50 [16] [nM] | IC50 [17] | inhibition (Prunus dulcis) [%] | also measured
CC[C@]1(CO)NC[C@H](O)[C@@H](O)[C@@H]1O.Cl | 2.1 | Not Active | 110 | 100 |  | Not Active | Not Active | 1.1 | 1200 |  | 1.6 | Not Active | 0 | Not Active | 0 | 3.6 | Not Active | 97 | Not Active | 5.6 | inhibition [19]: 30.1%; IC50 (Alpha-galactosidase): Not Active; IC50 ([8]; read-out: IC50): 94000 nM; inhibition (Bos taurus [9]): 15.3%; IC50 [12]: Not Active; inhibition (Bos taurus [15]): 18.4%; IC50 [18]: Not Active
CCCCCCCC[C@]1(CO)NC[C@H](O)[C@@H](O)[C@@H]1O.Cl | 6.6 | Not Active | 19 | 120 | 23 | Not Active | Not Active | 0.5 | 340 | Not Active | 4.6 | Not Active | 5.9 | Not Active | 5.7 | 12 | Not Active | 29 | Not Active | 15.7 | IC50 (Alpha-galactosidase; read-out: IC50): 98000 nM; inhibition (Bos taurus [9]): 14.3%; IC50 [12]: Not Active; inhibition (Bos taurus [15]): 35.2%; IC50 [18]: Not Active
CCCCCCCCC[C@@]1(CO)NC[C@H](O)[C@@H](O)[C@@H]1O.Cl | 1.5 | Not Active | 9500 | 42000 | 0 | Not Active | Not Active | 0.6 | 122000 | Not Active | 0 | Not Active | 2.7 | Not Active | 3.5 | 38.1 | Not Active | 3300 | Not Active | 32.9 | inhibition [19]: 15.3%; IC50 (Alpha-galactosidase): Not Active; IC50 ([12]; read-out: IC50): 213000 nM; IC50 ([18]; read-out: IC50): 29000 nM

The next lines start with results.

inhibition [1] [%] | IC50 [2] | IC50 [3] [nM] | IC50 [4] [nM] | inhibition (Sus scrofa) [%] | IC50 [5] | IC50 [6] | inhibition (Helix pomatia) [%] | IC50 ([7]; read-out: IC50) [nM] | IC50 [8] | inhibition [10] [%] | IC50 [11] | inhibition (Aspergillus niger) [%] | IC50 (Beta-glucuronidase) | inhibition (Penicillium decumbens) [%] | inhibition [13] [%] | IC50 [14] | IC50 [16] [nM] | IC50 [17] | inhibition (Prunus dulcis) [%] | SMILES | also measured
12.4 | Not Active | 23 | 230 | 10.6 | Not Active | Not Active | 4 | 700 | Not Active | 5.5 | Not Active | 0.83 | Not Active | 0 | 10.8 | Not Active | 68 | Not Active | 18.8 | CCCCC[C@]1(CO)NC[C@H](O)[C@@H](O)[C@@H]1O.Cl | IC50 (Alpha-galactosidase; read-out: IC50): 83000 nM; inhibition (Bos taurus [9]): 8%; IC50 [12]: Not Active; inhibition (Bos taurus [15]): 16.1%; IC50 [18]: Not Active
4.3 | Not Active | 34 | 140 | 11.7 | Not Active | Not Active | 0 | 550 | Not Active | 5.5 | Not Active | 5.4 | Not Active | 0.6 | 21.1 | Not Active | 37 | Not Active | 11.3 | CCCCCC[C@]1(CO)NC[C@H](O)[C@@H](O)[C@@H]1O.Cl | IC50 (Alpha-galactosidase; read-out: IC50): 76000 nM; inhibition (Bos taurus [9]): 10.8%; IC50 [12]: Not Active; inhibition (Bos taurus [15]): 15.5%; IC50 [18]: Not Active
16 | Not Active | 110000 | 242000 | 0 | Not Active | Not Active | 3 |  | Not Active | 4.4 | Not Active | 3.8 | Not Active | 22.8 |  | Not Active | 85000 | Not Active | 6.2 | CCCC[C@@]1(CO)NC[C@H](O)[C@@H](O)[C@@H]1O.Cl | inhibition [19]: 12.5%; IC50 [7]: Not Active; IC50 (Alpha-galactosidase): Not Active; IC50 ([12]; read-out: IC50): 149000 nM; IC50 ([18]; read-out: IC50): 52000 nM
